# Assay: Therapeutic study (60 days treatment after 90 days HFD): body weight
# Format: in vivo, Wistar strain albino rats
# Settings: in g
# Method: Wistar strain albino rats of body weight ranging from 190-225 g were selected for the present study. The temperature and humidity were kept at optimum (22+2° C.; 40-70% and animals were exposed to natural chronological day night cycles. The experiments were carried out in conformity with the Institutional Animal Ethics Committee.
# The 6 groups were as follows: • 1. Normal Control • 2.
structure (smiles),measurement,setting,value
"CC(C)c1c(C(=O)Nc2ccccc2)c(-c2ccccc2)c(-c2ccc(F)cc2)n1CC[C@@H](O)C[C@@H](O)CC(=O)O [Statin, Atorvastatin]",Average Body Weight,"HFD continued, day 0",275.33 ± 7.09
same,Average Body Weight,"HFD continued, day 15",270.67 ± 7.37
same,Average Body Weight,"HFD continued, day 30",268.33 ± 2.52
same,Average Body Weight,"HFD continued, day 45",265.67 ± 6.51
same,Average Body Weight,"HFD continued, day 60",262.33 ± 7.15
same,Average Body Weight,"HFD discontinued, day 0",270.33 ± 8.74
same,Average Body Weight,"HFD discontinued, day 30",264.33 ± 3.06
same,Average Body Weight,"HFD discontinued, day 45",263.00 ± 5.57
same,Average Body Weight,"HFD discontinued, day 60",259.83 ± 6.27
